# Several values for one entry are separate records, joined by “and”; a condition that tells them apart may be missing. Equal entries are not always repeated.
# Assays:
# MCF7 [1] = assay: Anticancer activity against human MCF7 cells; assay type: functional, cell-based
# [2] = biological target: c-Jun N-terminal kinase, JNK (Homo sapiens, UniProt P45983+P53779+P45984); assay: Inhibition of N-terminal c-Jun phosphorylation in human HeLa cells; assay type: cell-based
# TRAMP-C1A [3] = assay: Antiproliferative activity against mouse TRAMP-C1A cells; assay type: functional, cell-based
# C2D cell line = assay: Antiproliferative activity against mouse C2D cell line; assay type: functional, cell-based
# C2G cell line = assay: Antiproliferative activity against mouse C2G cell line; assay type: functional, cell-based
# TRAMP-C2H [4] = assay: Antiproliferative activity against mouse TRAMP-C2H cells; assay type: functional, cell-based
# MCF7 [5] = assay: Anticancer activity against human MCF7 cells assessed as inhibition of cell growth; assay type: functional, cell-based
# [6] = Anticancer activity against human Lu1 cells; assay type: functional, cell-based
# HL-60 [7] = assay: Anticancer activity against human HL-60 cells; assay type: functional, cell-based
# P388 [8] = assay: Anticancer activity against mouse P388 cells; assay type: functional, cell-based
# MCF7 [9] = assay: Potency index, ratio of dihydroartemisinin IC50 to test compound IC50 for anticancer activity against human MCF7 cells; assay type: functional
# [10] = Potency index, ratio of dihydroartemisinin IC50 to test compound IC50 for anticancer activity against human Lu1 cells; assay type: functional
# HL-60 [11] = assay: Potency index, ratio of dihydroartemisinin IC50 to test compound IC50 for anticancer activity against human HL-60 cells; assay type: functional
# [12] = Potency index, ratio of dihydroartemisinin IC50 to test compound IC50 for anticancer activity against mouse […] cells; assay type: functional
# MCF7 [13] = assay: Antiproliferative activity against doxorubicin resistant human MCF7 cells; assay type: functional, cell-based
# [14] = Antiproliferative activity against mouse P388 cells assessed as reduction in cell viability measured after 72 hrs; assay type: functional, cell-based; conditions: 72 h
# HL-60 [15] = assay: Antiproliferative activity against human HL-60 cells assessed as reduction in cell viability measured after 72 hrs; assay type: functional, cell-based; conditions: HL-60, 72 h
# P388/ADR [16] = assay: Antiproliferative activity against mouse P388/ADR cells assessed as reduction in cell viability measured after 72 hrs; assay type: functional, cell-based; conditions: 72 h
# P388 [17] = assay: Potency index, ratio of test compound IC50 to dihydroartemisinin IC50 for antiproliferative activity against mouse P388 cells assessed as reduction in cell viability measured after 72 hrs; assay type: functional
# HL-60 [18] = assay: Potency index, ratio of test compound IC50 to dihydroartemisinin IC50 for antiproliferative activity against human HL-60 cells assessed as reduction in cell viability measured after 72 hrs; assay type: functional
# P388/ADR [19] = assay: Potency index, ratio of test compound IC50 to dihydroartemisinin IC50 for antiproliferative activity against mouse P388/ADR cells assessed as reduction in cell viability measured after 72 hrs; assay type: functional
# HCT-116 [20] = assay: Antiproliferative activity against human HCT-116 cells assessed as reduction in cell viability; assay type: functional, cell-based; conditions: hct-116
# HeLa [21] = assay: Antiproliferative activity against human HeLa cells assessed as reduction in cell viability; assay type: functional, cell-based
# Leukemia cell [22] = assay: Antiproliferative activity against human Leukemia cell assessed as reduction in cell viability; assay type: functional, cell-based
# HeLa [23] = assay: Potency index, ratio of artesunate IC50 to test compound IC50 for antiproliferative activity against human HeLA cells assessed as inhibition of cell growth; assay type: functional
# HCT-116 [24] = assay: Potency index, ratio of artesunate IC50 to test compound IC50 for antiproliferative activity against human HCT-116 cells assessed as inhibition of cell growth; assay type: functional
# Leukemia cell [25] = assay: Potency index, ratio of artesunate IC50 to test compound IC50 for antiproliferative activity against human Leukemia cell assessed as inhibition of cell growth; assay type: functional
# TRAMP-C1A [26] = assay: Cytotoxicity against mouse TRAMP-C1A cells assessed as inhibition of cell growth measured for 72 hrs by MTT assay; assay type: functional
# TRAMP-C2H [27] = assay: Cytotoxicity against mouse TRAMP-C2H cells assessed as inhibition of cell growth measured for 72 hrs by MTT assay; assay type: functional
# LNCaP = assay: Cytotoxicity against human LNCaP cells assessed as inhibition of cell growth measured for 72 hrs by MTT assay; assay type: functional
# HCT-116 [28] = assay: Antiproliferative activity against human HCT-116 cells; assay type: functional, cell-based
# HeLa [29] = assay: Antiproliferative activity against human HeLa cells; assay type: functional, cell-based
# [30] = Antiproliferative activity against human 1205Lu cells; assay type: functional, cell-based
# [31] = Cytotoxicity against human HFF cells; assay type: toxicity, cell-based
# [32] = Potency index, ratio of artesunate IC50 to test compound IC50 for antiproliferative activity against human 1205Lu cells assessed as inhibition of cell growth; assay type: functional
smiles,measurement,setting,value
Cc1cc(N/N=C/c2ccc(O[C@H]3O[C@@H]4O[C@@]5(C)CC[C@H]6[C@H](C)CC[C@@H]([C@H]3C)[C@@]46OO5)cc2)c2cc(Cl)ccc2n1,IC50,MCF7 [1],15000 nM
same,IC50,[2],7500 nM
C[C@H]1[C@@H](OC(COC(=O)c2cc[n+]([O-])cc2)C[C@H]2O[C@@H]3O[C@@]4(C)CC[C@H]5[C@H](C)CC[C@@H]([C@H]2C)[C@@]35OO4)O[C@@H]2O[C@@]3(C)CC[C@H]4[C@H](C)CC[C@@H]1[C@@]24OO3 (stereo partly drawn),IC50,TRAMP-C1A [3],36.1 nM
same,IC50,C2D cell line,36.1 nM
same,IC50,C2G cell line,36.1 nM
same,IC50,TRAMP-C2H [4],36.1 nM
CC1CCNC(C(=O)c2ccc(-n3cc(CO[C@H]4O[C@@H]5O[C@@]6(C)CC[C@H]7[C@H](C)CC[C@@H]([C@H]4C)[C@@]57OO6)nn3)cc2)C1 (stereo partly drawn),IC50,MCF7 [1],2500 nM
same,IC50,MCF7 [5],2500 nM
same,IC50,[6],2500 nM
same,IC50,HL-60 [7],2500 nM
same,IC50,P388 [8],2500 nM
same,Ratio IC50,MCF7 [9],10.5
same,Ratio IC50,[10],10.5
same,Ratio IC50,HL-60 [11],10.5
same,Ratio IC50,[12],10.5
C[C@H]1[C@@H](Oc2ccc(Cn3ccnn3)cc2)O[C@@H]2O[C@@]3(C)CC[C@H]4[C@H](C)CC[C@@H]1[C@@]24OO3,IC50,MCF7 [13],47 nM
same,IC50,[14],47 nM
same,IC50,HL-60 [15],65 nM
same,IC50,P388/ADR [16],2890 nM
same,Ratio IC50,P388 [17],4.6
same,Ratio IC50,HL-60 [18],4.6
same,Ratio IC50,P388/ADR [19],4.6
C[C@H]1[C@@H](CC(COP(=O)(Oc2ccccc2)Oc2ccccc2)C[C@H]2O[C@@H]3O[C@]4(C)CC[C@H]5[C@H](C)CC[C@@H]([C@H]2C)[C@@]35OO4)O[C@@H]2O[C@@]3(C)CC[C@H]4[C@H](C)CC[C@@H]1[C@@]24OO3 (stereo partly drawn),IC50,HCT-116 [20],40 nM and 190 nM
same,IC50,HeLa [21],40 nM
same,IC50,Leukemia cell [22],100 nM
same,Ratio IC50,HeLa [23],68.8
same,Ratio IC50,HCT-116 [24],68.8
same,Ratio IC50,Leukemia cell [25],68.8
same,GI50,TRAMP-C1A [26],31.9 nM
same,GI50,TRAMP-C2H [27],44.8 nM
same,GI50,LNCaP,34.4 nM
C[C@H]1[C@@H](CC(C[C@H]2O[C@@H]3O[C@@]4(C)CC[C@H]5[C@H](C)CC[C@@H]([C@H]2C)[C@@]35OO4)CS(=O)(=O)c2ccc(CO)cc2)O[C@@H]2O[C@@]3(C)CC[C@H]4[C@H](C)CC[C@@H]1[C@@]24OO3 (stereo partly drawn),Ratio IC50,HeLa [23],12.6
same,Ratio IC50,HCT-116 [24],12.6
same,IC50,HCT-116 [28],70 nM
same,IC50,HeLa [29],70 nM
same,IC50,[30],70 nM
same,IC50,[31],57500 nM
same,Ratio IC50,[32],12.6
